In the NIST ThermoML archive (doi:10.1016/j.jct.2016.04.014):

Conditions: Liquid, Vibrating tube method

CCCCCCCC [octane]
Conditions | mass density [kg/m3]
288.15 K, 100 kPa | 706.5
288.15 K, 1000 kPa | 707.2
288.15 K, 5000 kPa | 710.3
288.15 K, 10000 kPa | 714.1
288.15 K, 15000 kPa | 717.7
288.15 K, 20000 kPa | 721.2
288.15 K, 25000 kPa | 724.5
288.15 K, 30000 kPa | 727.7
288.15 K, 35000 kPa | 730.8
288.15 K, 40000 kPa | 733.7
288.15 K, 45000 kPa | 736.5
288.15 K, 50000 kPa | 739.2
288.15 K, 55000 kPa | 741.7
288.15 K, 60000 kPa | 744.1
293.15 K, 100 kPa | 702.5
293.15 K, 101 kPa | 702.58
293.15 K, 1000 kPa | 703.2
293.15 K, 5000 kPa | 706.4
293.15 K, 10000 kPa | 710.3
293.15 K, 15000 kPa | 714
293.15 K, 20000 kPa | 717.6
293.15 K, 25000 kPa | 721
293.15 K, 30000 kPa | 724.3
293.15 K, 35000 kPa | 727.5
293.15 K, 40000 kPa | 730.5
293.15 K, 45000 kPa | 733.3
293.15 K, 50000 kPa | 736
293.15 K, 55000 kPa | 738.6
293.15 K, 60000 kPa | 741
298.15 K, 100 kPa | 698.5
298.15 K, 1000 kPa | 699.2
298.15 K, 5000 kPa | 702.5
298.15 K, 10000 kPa | 706.5
298.15 K, 15000 kPa | 710.3
298.15 K, 20000 kPa | 714
298.15 K, 25000 kPa | 717.6
298.15 K, 30000 kPa | 720.9
298.15 K, 35000 kPa | 724.1
298.15 K, 40000 kPa | 727.2
298.15 K, 45000 kPa | 730.1
298.15 K, 50000 kPa | 732.9
298.15 K, 55000 kPa | 735.5
298.15 K, 60000 kPa | 738
303.15 K, 100 kPa | 694.4
303.15 K, 101 kPa | 694.48
303.15 K, 1000 kPa | 695.2
303.15 K, 5000 kPa | 698.6
303.15 K, 10000 kPa | 702.7
303.15 K, 15000 kPa | 706.7
303.15 K, 20000 kPa | 710.5
303.15 K, 25000 kPa | 714.1
303.15 K, 30000 kPa | 717.5
303.15 K, 35000 kPa | 720.9
303.15 K, 40000 kPa | 724
303.15 K, 45000 kPa | 727
303.15 K, 50000 kPa | 729.8
303.15 K, 55000 kPa | 732.5
303.15 K, 60000 kPa | 735
308.15 K, 100 kPa | 690.4
308.15 K, 1000 kPa | 691.2
308.15 K, 5000 kPa | 694.7
308.15 K, 10000 kPa | 698.9
308.15 K, 15000 kPa | 703
308.15 K, 20000 kPa | 706.9
308.15 K, 25000 kPa | 710.6
308.15 K, 30000 kPa | 714.2
308.15 K, 35000 kPa | 717.5
308.15 K, 40000 kPa | 720.8
308.15 K, 45000 kPa | 723.8
308.15 K, 50000 kPa | 726.7
308.15 K, 55000 kPa | 729.4
308.15 K, 60000 kPa | 731.9
313.15 K, 100 kPa | 686.3
313.15 K, 101 kPa | 686.32
313.15 K, 1000 kPa | 687.1
313.15 K, 5000 kPa | 690.8
313.15 K, 10000 kPa | 695.1
313.15 K, 15000 kPa | 699.3
313.15 K, 20000 kPa | 703.3
313.15 K, 25000 kPa | 707.2
313.15 K, 30000 kPa | 710.8
313.15 K, 35000 kPa | 714.3
313.15 K, 40000 kPa | 717.6
313.15 K, 45000 kPa | 720.7
313.15 K, 50000 kPa | 723.6
313.15 K, 55000 kPa | 726.3
313.15 K, 60000 kPa | 728.9
318.15 K, 100 kPa | 682.2
318.15 K, 1000 kPa | 683
318.15 K, 5000 kPa | 686.8
318.15 K, 10000 kPa | 691.3
318.15 K, 15000 kPa | 695.6
318.15 K, 20000 kPa | 699.7
318.15 K, 25000 kPa | 703.6
318.15 K, 30000 kPa | 707.4
318.15 K, 35000 kPa | 711
318.15 K, 40000 kPa | 714.3
318.15 K, 45000 kPa | 717.5
318.15 K, 50000 kPa | 720.5
318.15 K, 55000 kPa | 723.3
318.15 K, 60000 kPa | 725.9
323.15 K, 100 kPa | 678
323.15 K, 101 kPa | 678.09
323.15 K, 1000 kPa | 678.9
323.15 K, 5000 kPa | 682.8
323.15 K, 10000 kPa | 687.4
323.15 K, 15000 kPa | 691.9
323.15 K, 20000 kPa | 696.1
323.15 K, 25000 kPa | 700.2
323.15 K, 30000 kPa | 704
323.15 K, 35000 kPa | 707.7
323.15 K, 40000 kPa | 711.1
323.15 K, 45000 kPa | 714.4
323.15 K, 50000 kPa | 717.4
323.15 K, 55000 kPa | 720.3
323.15 K, 60000 kPa | 722.9
328.15 K, 100 kPa | 673.8
328.15 K, 1000 kPa | 674.7
328.15 K, 5000 kPa | 678.7
328.15 K, 10000 kPa | 683.5
328.15 K, 15000 kPa | 688.1
328.15 K, 20000 kPa | 692.5
328.15 K, 25000 kPa | 696.7
328.15 K, 30000 kPa | 700.7
328.15 K, 35000 kPa | 704.4
328.15 K, 40000 kPa | 707.9
328.15 K, 45000 kPa | 711.3
328.15 K, 50000 kPa | 714.4
328.15 K, 55000 kPa | 717.3
328.15 K, 60000 kPa | 719.9
333.15 K, 100 kPa | 669.7
333.15 K, 1000 kPa | 670.6
333.15 K, 5000 kPa | 674.8
333.15 K, 10000 kPa | 679.7
333.15 K, 15000 kPa | 684.5
333.15 K, 20000 kPa | 689
333.15 K, 25000 kPa | 693.2
333.15 K, 30000 kPa | 697.3
333.15 K, 35000 kPa | 701.1
333.15 K, 40000 kPa | 704.7
333.15 K, 45000 kPa | 708.1
333.15 K, 50000 kPa | 711.3
333.15 K, 55000 kPa | 714.2
333.15 K, 60000 kPa | 716.9
343.15 K, 100 kPa | 661.2
343.15 K, 1000 kPa | 662.2
343.15 K, 5000 kPa | 666.6
343.15 K, 10000 kPa | 671.9
343.15 K, 15000 kPa | 677
343.15 K, 20000 kPa | 681.8
343.15 K, 25000 kPa | 686.3
343.15 K, 30000 kPa | 690.6
343.15 K, 35000 kPa | 694.6
343.15 K, 40000 kPa | 698.4
343.15 K, 45000 kPa | 701.9
343.15 K, 50000 kPa | 705.2
343.15 K, 55000 kPa | 708.2
343.15 K, 60000 kPa | 711
353.15 K, 100 kPa | 652.6
353.15 K, 1000 kPa | 653.7
353.15 K, 5000 kPa | 658.4
353.15 K, 10000 kPa | 664.1
353.15 K, 15000 kPa | 669.4
353.15 K, 20000 kPa | 674.5
353.15 K, 25000 kPa | 679.3
353.15 K, 30000 kPa | 683.9
353.15 K, 35000 kPa | 688.1
353.15 K, 40000 kPa | 692.1
353.15 K, 45000 kPa | 695.7
353.15 K, 50000 kPa | 699.1
353.15 K, 55000 kPa | 702.3
353.15 K, 60000 kPa | 705.1
363.15 K, 100 kPa | 643.8
363.15 K, 1000 kPa | 645
363.15 K, 5000 kPa | 650.1
363.15 K, 10000 kPa | 656.1
363.15 K, 15000 kPa | 661.9
363.15 K, 20000 kPa | 667.3
363.15 K, 25000 kPa | 672.4
363.15 K, 30000 kPa | 677.2
363.15 K, 35000 kPa | 681.6
363.15 K, 40000 kPa | 685.8
363.15 K, 45000 kPa | 689.6
363.15 K, 50000 kPa | 693.1
363.15 K, 55000 kPa | 696.3
363.15 K, 60000 kPa | 699.2
373.15 K, 100 kPa | 634.7
373.15 K, 1000 kPa | 636.3
373.15 K, 5000 kPa | 641.8
373.15 K, 10000 kPa | 648.2
373.15 K, 15000 kPa | 654.4
373.15 K, 20000 kPa | 660.1
373.15 K, 25000 kPa | 665.5
373.15 K, 30000 kPa | 670.6
373.15 K, 35000 kPa | 675.3
373.15 K, 40000 kPa | 679.6
373.15 K, 45000 kPa | 683.6
373.15 K, 50000 kPa | 687.3
373.15 K, 55000 kPa | 690.5
373.15 K, 60000 kPa | 693.5
393.15 K, 100 kPa | 616.3
393.15 K, 1000 kPa | 618.1
393.15 K, 5000 kPa | 624.3
393.15 K, 10000 kPa | 631.8
393.15 K, 15000 kPa | 638.8
393.15 K, 20000 kPa | 645.3
393.15 K, 25000 kPa | 651.5
393.15 K, 30000 kPa | 657.1
393.15 K, 35000 kPa | 662.3
393.15 K, 40000 kPa | 667.1
393.15 K, 45000 kPa | 671.4
393.15 K, 50000 kPa | 675.3
393.15 K, 55000 kPa | 678.8
393.15 K, 60000 kPa | 681.8
413.15 K, 1000 kPa | 599.3
413.15 K, 5000 kPa | 606.6
413.15 K, 10000 kPa | 615.1
413.15 K, 15000 kPa | 623.1
413.15 K, 20000 kPa | 630.6
413.15 K, 25000 kPa | 637.4
413.15 K, 30000 kPa | 643.8
413.15 K, 35000 kPa | 649.6
413.15 K, 40000 kPa | 654.8
413.15 K, 45000 kPa | 659.5
413.15 K, 50000 kPa | 663.6
413.15 K, 55000 kPa | 667.2
413.15 K, 60000 kPa | 670.2
